Laboratory results: PubChem BioAssay (NCI)
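Briefly, cells in 96-well plates were exposed to five compound concentrations for 48 h, and endpoints were estimated by linear interpolation. TGI: total growth inhibition.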

What was measured:
Assay in all cases: NCI tumour cell line growth inhibition, 48 h
OVCAR-5 ovarian = test system: OVCAR-5 ovarian
NCI-H226 lung = test system: NCI-H226 lung
UACC-62 melanoma = test system: UACC-62 melanoma
DU-145 prostate = test system: DU-145 prostate
HCT-116 colon = test system: HCT-116 colon
NCI/ADR-RES ovarian = test system: NCI/ADR-RES ovarian
HCC-2998 colon = test system: HCC-2998 colon
A549 NSCLC = test system: A549 NSCLC
NCI-H460 lung = test system: NCI-H460 lung
HT29 colon = test system: HT29 colon
T-47D breast = test system: T-47D breast
M14 melanoma = test system: M14 melanoma
SNB-19 CNS = test system: SNB-19 CNS
HS 578T breast = test system: HS 578T breast
SR leukemia = test system: SR leukemia
UO-31 renal = test system: UO-31 renal

SMILES	TGI (OVCAR-5 ovarian)	TGI (NCI-H226 lung)	TGI (UACC-62 melanoma)	TGI (DU-145 prostate)	TGI (HCT-116 colon)	TGI (NCI/ADR-RES ovarian)	TGI (HCC-2998 colon)	TGI (A549 NSCLC)	TGI (NCI-H460 lung)	TGI (HT29 colon)	TGI (T-47D breast)	TGI (M14 melanoma)	TGI (SNB-19 CNS)	TGI (HS 578T breast)	TGI (SR leukemia)	TGI (UO-31 renal)
O=C1c2ccccc2C(=O)N1c1ccc(OCCN2CCCCC2)cc1	> 100 µM	> 100 µM	> 100 µM	> 100 µM	> 100 µM	> 100 µM	> 100 µM	> 100 µM	> 100 µM	> 100 µM	> 100 µM	> 100 µM	> 100 µM	> 100 µM	> 100 µM	–
O/N=C\c1cc(O)c(O)c(/C=N/O)c1	> 100 µM	78.6 µM	> 100 µM	> 100 µM	> 100 µM	> 100 µM	–	> 100 µM	> 100 µM	> 100 µM	> 100 µM	> 100 µM	> 100 µM	> 100 µM	> 100 µM	> 100 µM
Cc1cccc2c1C(=O)C(C1OC(=O)c3ccccc31)C2 (stereo unspecified)	> 100 µM	> 100 µM	> 100 µM	> 100 µM	> 100 µM	> 100 µM	> 100 µM	> 100 µM	> 100 µM	> 100 µM	> 100 µM	–	> 100 µM	> 100 µM	> 100 µM	> 100 µM
O=C(O)CCC1(c2ccccc2)NC(=O)NC1=O (stereo unspecified)	> 100 µM	> 100 µM	> 100 µM	> 100 µM	> 100 µM	> 100 µM	> 100 µM	> 100 µM	> 100 µM	> 100 µM	> 100 µM	> 100 µM	> 100 µM	> 100 µM	> 100 µM	–
COC(=O)CCCCC/C(=C\C(=O)C(Cl)(Cl)Cl)OC	> 100 µM	–	> 100 µM	63.1 µM	49.6 µM	> 100 µM	35.6 µM	> 100 µM	76.9 µM	72.6 µM	> 100 µM	> 100 µM	> 100 µM	97.1 µM	45.2 µM	> 100 µM
CC(C)(C)C=C=C(C(C)(C)C)P(=O)(O)O	> 100 µM	> 100 µM	> 100 µM	> 100 µM	> 100 µM	> 100 µM	> 100 µM	> 100 µM	> 100 µM	> 100 µM	> 100 µM	> 100 µM	> 100 µM	> 100 µM	> 100 µM	–
CC(C)[Si](OC1=CCCCCC12C(=O)N(C)c1ccccc12)(C(C)C)C(C)C (stereo unspecified)	33.2 µM	39 µM	59.2 µM	29.9 µM	–	42.8 µM	38.3 µM	48.8 µM	38.4 µM	41.1 µM	21.3 µM	49.2 µM	29.5 µM	61.6 µM	67.3 µM	36.7 µM
O=C(NCc1ccccc1)c1cnc(Cl)cn1	–	> 100 µM	> 100 µM	> 100 µM	> 100 µM	44.2 µM	43.3 µM	> 100 µM	> 100 µM	> 100 µM	> 100 µM	> 100 µM	> 100 µM	> 100 µM	69.8 µM	36.3 µM
CC(C)[Si]1(C(C)C)OCC2OC(n3ccc(=O)[nH]c3=O)C(O)(CO)C2O[Si](C(C)C)(C(C)C)O1 (stereo unspecified)	29.5 µM	36.8 µM	29.2 µM	32.4 µM	27.7 µM	30.1 µM	–	27.9 µM	–	28.7 µM	30.2 µM	34.8 µM	28.9 µM	11.4 µM	30 µM	22.2 µM
Cc1[nH]c2ccccc2c1C=Nc1ccc(Oc2ccccc2)cc1	30 µM	–	32 µM	30.4 µM	31.3 µM	38.8 µM	–	32.3 µM	40 µM	31.3 µM	40.5 µM	30.3 µM	33.1 µM	52 µM	51 µM	24.4 µM
C#CCOC(=O)c1ccccc1OC(C)=O	> 100 µM	> 100 µM	> 100 µM	> 100 µM	> 100 µM	> 100 µM	–	–	> 100 µM	–	> 100 µM	> 100 µM	> 100 µM	> 100 µM	> 100 µM	> 100 µM
O=C(/C=C/c1ccc(Cl)c(Cl)c1)Oc1ccc(/C=C2\CCCCC2=O)cc1	> 100 µM	–	> 100 µM	> 100 µM	> 100 µM	> 100 µM	> 100 µM	> 100 µM	> 100 µM	> 100 µM	> 100 µM	> 100 µM	> 100 µM	> 100 µM	> 100 µM	> 100 µM
COC/C=C\[C@@]1(O)CCCC[C@@H]1CC(OC)OC	> 100 µM	> 100 µM	–	> 100 µM	> 62.7 µM	> 100 µM	> 100 µM	> 100 µM	> 90 µM	> 100 µM	> 100 µM	> 100 µM	> 100 µM	> 100 µM	98.9 µM	> 96.6 µM
Cc1ccc(S(=O)(=O)N/N=C2\C=C[C@]3(CC2)C(=O)N(C)c2ccccc23)cc1	> 100 µM	> 100 µM	> 100 µM	> 100 µM	> 100 µM	> 100 µM	> 100 µM	> 100 µM	> 100 µM	–	> 100 µM	> 100 µM	> 100 µM	> 100 µM	> 100 µM	> 100 µM
COc1cc2c(cc1OC)CCN=C2	> 100 µM	> 100 µM	> 100 µM	> 100 µM	> 100 µM	> 100 µM	> 100 µM	–	> 100 µM	> 100 µM	> 100 µM	> 100 µM	> 100 µM	> 100 µM	> 100 µM	> 100 µM
